Experimental data reported in article PMC9264368, “Structural Analysis and Development of Notum Fragment Screening Hits” (ACS Chemical Neuroscience, 2022).
In brackets after ≈: the same amount, converted by molar mass. Like-named read-outs stand apart in the source and are kept apart here.

Experiments:
[1] = set-up: method as in PMID 33124429; details: mouse; cited from earlier work
[2] = tested on: Wnt/β-catenin signaling in the presence of Notum; details: read-out: EC50, restoration of Wnt/β-catenin signaling, TCF/LEF reporter
[3] = tested on: Wnt/β-catenin signaling in the presence of Notum; set-up: method as in PMID 35536179; details: read-out: EC50, cell-based reporter (TCF/LEF) assay; cited from earlier work
MDCK-MDR1 = tested on: MDCK-MDR1; set-up: method as in PMID 35536179; details: cited from earlier work
[4] = set-up: method as in PMID 35536179; details: human liver microsomes; cited from earlier work
[5] = set-up: method as in PMID 35536179; details: cited from earlier work
Notum [6] = target: T1, Notum (Homo sapiens, UniProt Q6P988, C330S); experiment: biochemical
T1 sequence (Q6P988 81-451 C330S): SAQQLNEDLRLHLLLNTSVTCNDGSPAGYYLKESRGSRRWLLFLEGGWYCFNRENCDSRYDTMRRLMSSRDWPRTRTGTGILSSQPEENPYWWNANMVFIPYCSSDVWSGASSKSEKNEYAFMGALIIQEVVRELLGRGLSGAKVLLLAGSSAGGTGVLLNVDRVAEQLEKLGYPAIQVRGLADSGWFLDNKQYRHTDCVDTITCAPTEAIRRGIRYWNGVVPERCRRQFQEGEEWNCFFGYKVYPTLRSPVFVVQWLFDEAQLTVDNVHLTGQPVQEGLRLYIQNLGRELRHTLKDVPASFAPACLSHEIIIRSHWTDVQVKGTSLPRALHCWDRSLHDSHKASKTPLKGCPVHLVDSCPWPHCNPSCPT

[7] = set-up: method as in PMID 35536179; details: mouse liver microsomes; cited from earlier work
Notum [8] = target: T1, Notum; details: for LE (ligand efficiency): LE = 1.4(−pIC50)/HAC; for LLE (lipophilic ligand efficiency): LLE = pIC50 – clogP; for LE / LLE: supplementary CSV
[9] = Notum IC50, OPTS substrate, 10-point curves 30 nM to 1 mM, mean ± s.d. of N = 2–4 unless stated, Table 1 and figures
[10] = pIC50, Table 1, Notum OPTS assay

In the case of `Oc1nnc(-c2ccc(Cl)c(C(F)(F)F)c2)o1` [7a], the brain penetration [1] is given as “only partial” and the plasma exposure [1] is given as “good”.

`OCc1cn(-c2ccc(Cl)c(C(F)(F)F)c2)nn1` [7b, (1-(4-Chloro-3-(trifluoromethyl)phenyl)-1H-1,2,3-triazol-4-yl)methanol] gave an EC50 [2] of 1.6 ± 1.2 µM.

In the case of `FC(F)(F)c1c(Cl)ccc(-n2ccnn2)c1Cl` [7d], the EC50 [3] is given as 0.11 ± 0.1 µM.

In the case of `OCc1cn(-c2ccc(Cl)c(Cl)c2)nn1` [compound 7], the “Papp AB” value (MDCK-MDR1; MDCK-MDR1, AB) is given as 57 × 10^–6 cm/s, the “Papp BA” value (MDCK-MDR1; MDCK-MDR1, BA) is given as 59 × 10^–6 cm/s and the HLM Cli [4] is given as 12 µL/min/mg protein. The aqueous solubility [5] was 100 mg/mL (≈ 410 mM), the IC50 (Notum [6]; [9]) was under 10 µM and the MLM Cli [7] was 88 µL/min/mg protein.

With `COCC(=O)NCc1ccccc1` [compound 41] the “LE (ligand efficiency)” value (Notum [8]) was 0.45, the “LLE (lipophilic ligand efficiency)” value (Notum [8]) was 3.2 and the LE (Notum [8]) was 0.45. For the same compound, the LLE (Notum [8]) was 3.2 and the IC50 (Notum [6]; [9]) was 68 ± 5.4 µM.

For `COc1ccc(CNC(=O)[C@@H]2CCCO2)cc1` [compound 43], the “LE (ligand efficiency)” value (Notum [8]) was 0.34, the “LLE (lipophilic ligand efficiency)” value (Notum [8]) was 2.7 and the LE (Notum [8]) was 0.34. The LLE (Notum [8]) was 2.7 and the IC50 (Notum [6]; [9]) was 87 ± 47 µM.

For `COC(=O)COc1ccc(C#N)cc1` [compound 44], the “LE (ligand efficiency)” value (Notum [8]) was 0.34, the “LLE (lipophilic ligand efficiency)” value (Notum [8]) was 2.0 and the LE (Notum [8]) was 0.34. It also gave an LLE (Notum [8]) of 2 and an IC50 (Notum [6]; [9]) of 410 ± 63 µM.

For `O=C(NCCc1ccc(O)cc1)c1ccccn1` [compound 45], the “LE (ligand efficiency)” value (Notum [8]) was 0.24, the “LLE (lipophilic ligand efficiency)” value (Notum [8]) was 1.2 and the LE (Notum [8]) was 0.24. It also gave an LLE (Notum [8]) of 1.2 and an IC50 (Notum [6]; [9]) of 720 ± 18 µM.

With `COc1cc(-c2ccccc2)nc(N)n1` [compound 46] the “LE (ligand efficiency)” value (Notum [8]) was 0.32, the “LLE (lipophilic ligand efficiency)” value (Notum [8]) was 0.7 and the LE (Notum [8]) was 0.32. The LLE (Notum [8]) was 0.7 and the IC50 (Notum [6]; [9]) was 380 ± 130 µM.

In the case of `Cn1nc(O)cc1Nc1ccccc1` [compound 49], the “LE (ligand efficiency)” value (Notum [8]) is reported as 0.33, the “LLE (lipophilic ligand efficiency)” value (Notum [8]) is reported as 1.8 and the LE (Notum [8]) is reported as 0.33. The LLE (Notum [8]) was 1.8, the IC50 (Notum [6]; [9]) was 550 ± 93 µM and the IC50 (Notum [6]; [10]) was 631 µM.

With `Cc1ccc(C)c(OC(=O)c2ccncc2)c1` [compound 50] the “LE (ligand efficiency)” value (Notum [8]) was 0.37, the “LLE (lipophilic ligand efficiency)” value (Notum [8]) was 1.1 and the LE (Notum [8]) was 0.37. The LLE (Notum [8]) was 1.1 and the IC50 (Notum [6]; [9]) was 36 ± 2.7 µM.

With `CCc1noc(C)c1C(=O)Nc1cc(C)on1` [compound 53] the “LE (ligand efficiency)” value (Notum [8]) was 0.25, the “LLE (lipophilic ligand efficiency)” value (Notum [8]) was 2.7 and the LE (Notum [8]) was 0.25. It also gave an LLE (Notum [8]) of 2.7 and an IC50 (Notum [6]; [9]) of 980 ± 17 µM.

In the case of `Cc1ccccc1CNc1nnnn1C` [compound 54], the “LE (ligand efficiency)” value (Notum [8]) is reported as 0.38, the “LLE (lipophilic ligand efficiency)” value (Notum [8]) is reported as 2.0 and the LE (Notum [8]) is reported as 0.38. It also gave an LLE (Notum [8]) of 2 and an IC50 (Notum [6]; [9]) of 78 ± 8.2 µM.

In the case of `C[C@@H](Oc1ccc(-c2ccccc2)cc1)C(=O)O` [compound 55], the “LE (ligand efficiency)” value (Notum [8]) is reported as 0.29, the “LLE (lipophilic ligand efficiency)” value (Notum [8]) is reported as 0.2 and the LE (Notum [8]) is reported as 0.29. For the same compound, the LLE (Notum [8]) was 0.2 and the IC50 (Notum [6]; [9]) was 200 ± 76 µM.

With `CCn1c(NC(C)=O)nc2ccccc21` [compound 57] the “LE (ligand efficiency)” value (Notum [8]) was 0.33, the “LLE (lipophilic ligand efficiency)” value (Notum [8]) was 1.5 and the LE (Notum [8]) was 0.33. It also gave an LLE (Notum [8]) of 1.5, an IC50 (Notum [6]; [9]) of 260 ± 51 µM and an IC50 (Notum [6]; [10]) of 316 µM.

For `CC(=O)Nc1ccc2nsnc2c1` [compound 58], the “LE (ligand efficiency)” value (Notum [8]) was 0.38, the “LLE (lipophilic ligand efficiency)” value (Notum [8]) was 1.4 and the LE (Notum [8]) was 0.38. It also gave an LLE (Notum [8]) of 1.4 and an IC50 (Notum [6]; [9]) of 390 ± 53 µM.
